From US20140378395A1, “Peptides for the Treatment of Hearing” (13Therapeutics, Inc., priority 2011, published 2014)

Legend:
[1] = tested on: TNF-α secretion from RAW264.7 cells; experiment: Inhibition of CpG-ODN-induced TNF-α secretion from RAW264.7 cells (ELISA); type: cell-based, murine; conditions: for Inhibition of TNF-α secretion (percent inhibition) / Percent Inhibition of TNF-α secretion / Percent Inhibition of TNF-α secretion, CpG Stimulation: RAW264.7, 4 hours; for Inhibition of TNF-α secretion (percent inhibition) / Percent Inhibition of TNF-α secretion: 1 μg/ml CpG-ODN; for activity compared with P13 (inhibition of TNF-α after stimulation of RAW264.7 cells with CpG): SAR, versus P13; for Percent Inhibition of TNF-α secretion, CpG Stimulation: 1.25 ug/ml CpG-ODN
Experimental: RAW264.7 cells were plated at 1.5×10^5 cells/well-3×10^5 cells/well in 48-well plates. After 24 hours, the cells were incubated with peptides at various concentrations at room temperature in triplicate either before, simultaneous with, or after activation with various PAMPs for 18 hours. Cell-free supernatants were analyzed for cytokines by ELISA, in quadruplicate. RAW264.7 cells were stimulated with either CpG-ODN (1 μg/ml or 1.25 μg/ml), LPS (about 1 ng/ml), Poly (I:C) (about 10 μg/ml), flagellin (about 5 ng/ml), or zymosan (about 10 μg/ml). Dose response curves were done with each PAMP to determine optimal stimulation concentration. For CpG-ODN stimulation, cells were incubated for 4 hours at 37° C., supernatants collected, and TNF-α measured by ELISA. Any cytokine involved in inflammatory disease mediated toll receptor signaling can be measured using similar assays.
The effect of several peptides on TNF-α secretion from RAW264.7 cells in response to stimulation by CpG-ODN was studied. Each peptide was initially tested at 3 concentrations, 37 μM, 22.2 μM, and 11.1 μM. […] The peptides were then tested at 11.1 μM, 7.4 μM, and 3.7 μM (Table 3). […] Cell viability was examined for each peptide at the concentrations tested for TNF-α inhibition.
Inhibition of TNF-α secretion by various T-peptides was examined. RAW264.7 cells were plated at 3×10^5 cells/well in 48-well plates. After 24 h the cells were incubated with peptide at various concentrations at room temperature in triplicate for 15 minutes and then stimulated with 1.25 ug/ml CpG-ODN or 1 ng/ml LPS. Cells were then incubated for 4 hours at 37° C., supernatants collected, and TNF-α measured by ELISA. Percent inhibition was calculated by comparing TNF-α secretion from cells incubated with peptide to control cells with no peptide treatment. The inhibitive effects of peptides T3 (SEQ ID NO: 319), T11 (SEQ ID NO: 327), T21 (SEQ ID NO: 337), T36 (SEQ ID NO: 352), T37 (SEQ ID NO: 353), T51 (SEQ ID NO: 367), and T52 (SEQ ID NO: 368) were compared to inhibition by an analogue of P13 (SEQ ID NO: 369) having a sequence of nine arginine residues at the C-terminus (P13-R^9 (SEQ ID NO: 378)). (Table 4).

[2] = tested on: TNF-α secretion from RAW264.7 cells; experiment: as above; type: cell-based, murine; conditions: peptide 3.1 μM (Table 3), 1 μg/ml CpG-ODN, 4 hours

Row | Sequence | Inhibition of TNF-α secretion (percent inhibition) ([1]; peptide 7 μM (Table 3)) | Inhibition of TNF-α secretion (percent inhibition) ([1]; peptide 11 μM (Table 3)) | Percent Inhibition of TNF-α secretion ([1]; peptide 11.1 μM) | Percent Inhibition of TNF-α secretion ([1]; peptide 22.2 μM) | Percent Inhibition of TNF-α secretion ([1]; peptide 37 μM) | Inhibition of TNF-α secretion (percent inhibition) [2] | activity compared with P13 (inhibition of TNF-α after stimulation of RAW264.7 cells with CpG) [1] | Percent Inhibition of TNF-α secretion, CpG Stimulation ([1]; peptide 7.1 μM) | Percent Inhibition of TNF-α secretion, CpG Stimulation ([1]; peptide 11.1 μM) | Percent Inhibition of TNF-α secretion, CpG Stimulation ([1]; peptide 22 μM)
1 | EMFTILEEYFMYRGLLGLRIKYGRLFRRRRRRRRR (C-terminal nona-arginine (R9)) [69(S5)-R^9] | 94% | 93% | 93% | 100% | 100% | 66% |  |  |  | 
2 | EMFTILEEYFMYRGLLGLRIKYRRRRRRRRR (C-terminal nona-arginine (R9)) [73(S9)-R^9] | 76% | 85% | 84% | 100% | 100% | 3% |  |  |  | 
3 | MFTILEEYFMYRGLLGLRIRRRRRRRRR (C-terminal nona-arginine (R9)) [102(S18)-R^9] | 48% | 72% | 72% | 91% |  |  |  |  |  | 
4 | EMFTILEEYFMYRRRRRRRRR (C-terminal nona-arginine (R9)) [83(S17)-R^9] | 44% | 57% | 72% | 82% | 89% | 0% |  |  |  | 
5 | MFTILEEYFMYRGLLGLRIKYGRLFNEIRRRRRRRRR (C-terminal nona-arginine (R9)) [43(S2)-R^9] | 51% | 70% | 91% | 94% | 100% | 0% |  |  |  | 
6 | TILEEYFMYRGLLGLRIRRRRRRRRR (C-terminal nona-arginine (R9)) [104(S20)-R^9] | 60% | 74% | 74% | 93% |  |  |  |  |  | 
7 | EMFTILEEYFMYRGRRRRRRRRR (C-terminal nona-arginine (R9)) [81(S16)-R^9] | 53% | 70% | 84% | 86% | 90% | 26% |  |  |  | 
8 | DIVKVTVYDCIRRRRRRRRR [T37-R^9] |  |  |  |  |  |  | superior activity | 46% | 87% | 93%
9 | EMFTILEEYFMYRGLLGLRIKYGRRRRRRRRR (C-terminal nona-arginine (R9)) [72(S8)-R^9] | 80% | 93% | 92% | 100% | 100% | 43% |  |  |  | 
10 | EMFTILEEYFMYRGLLGLRRRRRRRRRR (C-terminal nona-arginine (R9)) [76(S12)-R^9] | 67% | 84% | 82% | 84% | 87% | 44% |  |  |  | 
11 | EMFTILEEYFMYRGLLGLRRRRRRRRR (C-terminal nona-arginine (R9)) [77(S13)-R^9] | 77% | 81% | 84% | 89% | 93% | 18% |  |  |  | 
12 | EMFTILEEYFMYRGLRRRRRRRRR (C-terminal nona-arginine (R9)) [80(S15)-R^9] | 68% | 81% | 78% | 87% | 91% | 57% |  |  |  | 
13 | FTILEEYFMYRGLLGLRIRRRRRRRRR (C-terminal nona-arginine (R9)) [103(S19)-R^9] | 87% | 93% | 93% | 99% |  |  |  |  |  | 
14 | AIIKVYVYACIRRRRRRRRR [T52-R^9] |  |  |  |  |  |  | superior activity | 97.8% | 99.2% | 100%
15 | AIVKLTVYACIRRRRRRRRR [T51-R^9] |  |  |  |  |  |  | superior activity | 94% | 98% | 99.7%
16 | ILEEYFMYRGLLGLRIRRRRRRRRR (C-terminal nona-arginine (R9)) [105(S21)-R^9] | 52% | 62% | 62% | 91% |  |  |  |  |  | 
17 | DIIKLTVYDCIRRRRRRRRR [T36-R^9] |  |  |  |  |  |  | superior activity | 50% | 70% | 82%
18 | DIVKLYVYDCIRRRRRRRRR [T21-R^9] |  |  |  |  |  |  | superior activity | 69% | 90% | 98%
19 | LEEYFMYGLLGLRIRRRRRRRRR (C-terminal nona-arginine (R9)) [106(S22)-R^9] | 53% | 70% | 70% | 92% |  |  |  |  |  | 
